Where two headings read alike, the source gives them in different places.

One test concerns the target T1, rat TRPV2 (rTRPV2-eGFP) (Rattus norvegicus, UniProt Q9WUD2).
T1 sequence (Q9WUD2 1-761): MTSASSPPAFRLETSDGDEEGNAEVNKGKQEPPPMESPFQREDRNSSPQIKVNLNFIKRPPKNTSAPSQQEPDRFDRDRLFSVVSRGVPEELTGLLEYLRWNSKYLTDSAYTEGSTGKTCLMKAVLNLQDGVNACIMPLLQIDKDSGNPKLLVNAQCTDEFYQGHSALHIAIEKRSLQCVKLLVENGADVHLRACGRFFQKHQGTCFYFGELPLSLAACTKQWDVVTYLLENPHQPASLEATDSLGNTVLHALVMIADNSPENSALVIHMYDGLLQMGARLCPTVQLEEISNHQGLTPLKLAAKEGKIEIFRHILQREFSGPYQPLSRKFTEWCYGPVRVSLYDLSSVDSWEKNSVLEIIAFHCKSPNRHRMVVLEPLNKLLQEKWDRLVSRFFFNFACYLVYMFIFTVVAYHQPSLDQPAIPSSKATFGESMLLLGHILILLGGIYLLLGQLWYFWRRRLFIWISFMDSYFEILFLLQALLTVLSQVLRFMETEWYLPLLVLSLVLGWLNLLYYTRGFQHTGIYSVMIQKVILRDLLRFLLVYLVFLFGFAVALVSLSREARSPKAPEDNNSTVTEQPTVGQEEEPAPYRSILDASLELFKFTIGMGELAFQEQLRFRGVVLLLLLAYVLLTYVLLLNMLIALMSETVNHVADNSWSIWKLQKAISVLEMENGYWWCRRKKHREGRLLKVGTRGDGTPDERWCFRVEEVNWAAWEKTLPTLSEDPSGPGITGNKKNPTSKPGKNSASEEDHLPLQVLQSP
Type of test: biochemical. As to conditions: for EC50: no inhibitor.

The next test relates to rat TRPV2. Particulars: cells pretreated with 2.5 mM PBCD; ref [22]; cited from earlier work.
For a further test, the system named is mouse or rat TRPV2. Particulars: read-out: reported EC50 values; ref [40]; cited from earlier work.
The subject of the next test is human TRPV2. Particulars: ref [40]; cited from earlier work.

Regarding `O=C(O)c1ccc(S(=O)(=O)N2CCCCC2)cc1` [Compound 6, 4-(Piperidine-1-sulfonyl)-benzoic acid], the “Confidence that EC50 is lower than that of PBCD (Bayesian hypothesis test)” value on rat TRPV2 (rTRPV2-eGFP) was determined as 84%. Turning to `C=C(C)[C@@H]1CCC(C)=C[C@H]1c1c(O)cc(CCCCC)cc1O` [CBD, cannabidiol], the EC50 (commonly the midpoint of the concentration-response curve) on rat TRPV2 (rTRPV2-eGFP) (EC50 (Bayesian, 90% confidence interval in brackets), TRPV2-GFP vesicles) is 110 µM; in the test with rat TRPV2, 3.7 µM; in the test with mouse or rat TRPV2, 0.01 to 1 µM. For the same molecule, the activation result in the test on human TRPV2 is listed as “no activation of human TRPV2”. For `COc1cc(CNC(=O)CCCC/C=C/C(C)C)ccc1O` [capsaicin], on rat TRPV2 (rTRPV2-eGFP) (negative controls, TRPV2-GFP vesicles), the “Activation/modulation of TRPV2 (fluorescence signal)” value is given as “no measurable increase of fluorescence signal”.

lysophosphatidylcholine [LPC]: the EC50 on rat TRPV2 (rTRPV2-eGFP) (read-out: EC50 (Bayesian, 90% confidence interval in brackets), TRPV2-GFP vesicles) was determined as 36 µM.

Source of the values: paper PMC10796807 (Computational and Structural Biotechnology Journal, 2023).
